# Measurements: publication PMC12677653, “Inhibition of Tumor Lipogenesis and Growth by Peptide‐Based Targeting of SREBP Activation” (Advanced Science, 2025)
# Legend:
# [1] = system: Insig1 S207 phosphorylation; experiment: Immunoblot of Insig1 S207 phosphorylation, HCT116; assay type: cell-based, human; details: HCT116 cells, peptide 15 μM 1 h before IGF1 100 ng/mL
# Experimental: Cellular proteins were extracted using ice‐cold lysis buffer [50 mM Tris‐HCl (pH 7.5), 150 mM NaCl, 0.1% SDS, 1% Triton X‐100, 1 mM DTT, 0.5 mM EDTA] supplemented with protease inhibitor cocktail (Roche) and phosphatase inhibitors (Bimake). Following lysis, cell extracts were centrifuged at 13400 × g for 15 min at 4 °C to remove cellular debris. The clarified supernatants were then incubated with primary antibodies overnight at 4 °C with gentle rotation. For Flag‐tagged protein immunoprecipitation, Flag M2 magnetic beads (Sigma) were added to the lysate‐antibody mixture and incubated for an additional 4 h at 4 °C. The immunocomplexes were washed three times with lysis buffer under stringent conditions (5 min per wash with rotation). Finally, the precipitated proteins were eluted and analyzed by immunoblotting as previously described.^[ [35] ^]
# h) HCT116 cells were pretreated with Insig1/2 loop1 peptide (15 μM) for 1 h before IGF1 (100 ng ml⁻¹) stimulation.
# [2] = system: SREBP2; experiment: Immunofluorescence of SREBP2 nuclear translocation; assay type: cell-based, human; details: Huh7 cells, peptide 15 μM, IGF1 100 ng/mL 8 h
# Experimental: For endogenous SREBP1 and SREBP2 staining, the cells were washed with ice‐cold PBS and fixed with 4% paraformaldehyde in PBS at room temperature (around 20–25 °C) for 15 min. Then, the cells were treated with 0.1% Triton X‐100 for 5 min and blocked in 3% BSA for 1 h at room temperature. The cells were then incubated with primary antibody against SREBP1 (diluted 1:200) or SREBP2 (diluted 1:200) overnight at 4 °C. After incubation with fluorescent‐dye‐conjugated secondary antibody (diluted 1:1000; Thermo Fisher Scientific) in PBS containing 0.05% saponin, 5% goat serum and 0.5% BSA for 1 h at room temperature followed by DAPI (diluted 1:10 000; Thermo Fisher Scientific) staining of the cell nucleus for 10 min. Cells were examined using a laser confocal microscope (Zeiss LSM 900).
# a) Following pretreatment with Insig1/2 loop 1 peptide (15 μM) and IGF1 stimulation (100 ng ml⁻¹, 8 h), Huh7 cells were subjected to immunofluorescence analysis (scale bar: 10 μm).
sequence,measurement,setting,value
RKKRRQRRRLYPCIDSHLGEPHKFKRE [Insig1/2 loop 1 peptide],Insig1 S207 phosphorylation,[1],inhibited
same,IGF1-induced nuclear translocation of SREBP2,[2],inhibited
